These results are taken from US20210179989A1, “SYSTEM AND METHODS FOR OPTOGENETIC EVALUATION OF HUMAN NEUROMUSCULAR FUNCTION” (priority 2018, published 2021).

The subject of the assay is acetylcholine receptors in the NMJ. It is filed as cell-based, human.

For the substance α-bungarotoxin [BTX], the “average number of spontaneous contractions after treatment” value stood at 0.17±0.17; the “average score (corrected fraction of effective light pulses), after treatment” value came to 0.01±0.01; the “light-triggered and spontaneous contractions” value is “completely stopped”.
